Patent US11773086B2, “Fungal modulators” (TRUSTEES OF BOSTON UNIVERSITY, priority 2020, dated 2023)

How the values were obtained:
C. auris [1] = test: microbe, parasite or virus in culture; assay type: cell-based, Candida auris; settings: 50 μM azoffluxin, Etest
Method: FIGS. 2A-2E illustrate the above-described screening of the BU-CMD which identified azoffluxin as a fluconazole (FLC) potentiator against C. auris. […] Growth, as determined by optical density at 600 nm (OD600), is plotted in the presence of each CMD compound alone on the y-axis and in combination with FLC on the x-axis. Dotted lines represent 7-median absolute deviations from the median for each condition. […] FIG. 2B depicts the synergistic interactions. […] Growth was measured by the OD600 and normalized to the no drug control (see color bar). The fractional inhibitory concentration index (FICI) was calculated to determine the chemical interaction, with a value below 0.5 indicating synergy. […] FIG. 2D depicts FLC Etest strips in the presence and absence of 50 μM azoffluxin. A total of 1×10^6 C. auris cells were added to YPD agar plates, the E-test strip was added, and plates were incubated at 30° C. for 24 hours prior to imaging. FIG. 2. […] Dose-response assay where a two-fold dilution of azoffluxin was titered starting from 50 μM. Indicated titrations have a background concentration of FLC of 32 μg/mL, 4 μg/mL, 0.25 μg/mL, and 0.5 μg/mL for C. auris Ci6684 (Erg11Y132F), C. albicans (SN95), C. glabrata (BG2) or S. cerevisiae (BY4741), respectively. […] Dose response assays were incubated for 48 hours at 30° C. in RPMI. Growth in each well was plotted by the relative optical density to the respective no drug control (See color bar in FIG. 2B).
Compound potency was assessed alone by dose response assays or in combination with another compound by dose-response matrixes in 96-well plates, or 384-well, flat-bottom, microtiter plates (Corning) as previously described. Plates were incubated at 30° C. for the indicated time period. Growth was quantified by measuring OD600 and corrected for medium background. All strains were assessed in biological duplicate experiments with technical duplicates. […] For dose-response matrixes fractional inhibitory concentration index at 90% growth inhibition (FICI90) was calculated as previously described. […]

C. auris [2] = test: Intracellular fluconazole and azoffluxin detection by LC-MS; assay type: cell-based, Candida auris; settings: combination treatment vs high fluconazole alone, 1 hour
Description: FIGS. 3A-3B, and 4A-4B illustrate azoffluxin increases fluconazole (FLC) bioavailability by inhibiting Cdr1-mediated efflux in C. auris, as described above. FIG. 3A depicts the relative abundance of specific sterols determined in C. auris after an 18-hour treatment with the respective compounds (⋅ indicates combo treatment concentrations) using LC-MS. Values are plotted relative to the internal standard of cholesterol and error bars indicate standard deviation between technical triplicates. Significance was determined by an unpaired student t-test of each condition to untreated, (*) indicates a p-value<0.05 and (**) indicates a p-value<0.01. FIG. 3B depicts the intracellular concentrations of FLC and azoffluxin measured after treatment for 1 hour (conditions as in FIG. 3A) Error bars indicate standard deviation between technical triplicates. Significance was determined by an unpaired student t-test, (**) indicates a p-value<0.01. FIG. 4A depicts the quantified relative expression of a panel of putative efflux pumps in C. auris Ci6684. Expression of CDR1 (B9J08_000164), MDR1 (B9J08_003981), CDR4-1 (B9J08_000479), CDR4-2 (B9J08_002451), SNQ2-1 (B9J08_001125), and SNQ2-2 (B9J08_004452) was measured by RT-qPCR. […] FIG. 4B depicts expression of CDR1 (B9J08_000164) and CDR4-1 (B9J08_000479) measured by quantitative real-time PCR (RT-qPCR). […]

C. neoformans = test: Fluconazole efficacy with azoffluxin; assay type: cell-based, Cryptococcus neoformans; settings: despite increasing Nile red
Description: FIGS. 11A and 11B illustrate Nile red Accumulation in C. albicans, C. glabrata, and C. neoformans.

C=C(C)C[C@@H](O)COc1cc2c(cc1C1(c3cc4c(cc3OC[C@H](O)CC(=C)C)OCO4)C(=O)Nc3cc(F)ccc31)OCO2 [CMLD012336]
fluconazole MIC in presence of azoffluxin (C. auris [1]): 16 µg/mL
reduction of fluconazole MIC (C. auris [1]; solid medium): > 16 fold
increase in intracellular fluconazole (C. auris [2]): ~2.5 fold
enhancement of fluconazole efficacy (C. neoformans): did not enhance the efficacy of fluconazole
